Results reported in publication PMC3762611 (International Journal of Tryptophan Research : IJTR, 2013).

Target: indoleamine 2,3-dioxygenase 1 (IDO1) (Homo sapiens, UniProt P14902)
Type: biochemical

Chain of indoleamine 2,3-dioxygenase 1 (IDO1) (P14902 whole entry): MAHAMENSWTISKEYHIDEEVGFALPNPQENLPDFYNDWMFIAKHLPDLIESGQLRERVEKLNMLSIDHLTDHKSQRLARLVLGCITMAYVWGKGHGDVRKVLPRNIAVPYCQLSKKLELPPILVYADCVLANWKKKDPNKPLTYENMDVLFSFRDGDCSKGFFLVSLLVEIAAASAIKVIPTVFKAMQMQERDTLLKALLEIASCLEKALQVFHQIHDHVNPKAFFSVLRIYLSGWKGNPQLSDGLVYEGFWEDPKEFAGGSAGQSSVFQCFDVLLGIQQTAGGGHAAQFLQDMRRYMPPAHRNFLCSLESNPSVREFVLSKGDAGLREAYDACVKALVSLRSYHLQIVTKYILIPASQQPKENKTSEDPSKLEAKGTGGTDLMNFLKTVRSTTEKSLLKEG

CC1(C)CCC2=C(O1)c1ccccc1C(=O)C2=O [β-lapachone, 3,4-dihydro-2,2-dimethyl-2H-naphthol[1,2-b]pyran-5,6-dione]
Ki: 450 nM
